Here are results for six compounds from patent US20240140991A1, “ANTIBIOTIC NATURAL PRODUCT ANALOGUES” (THE QUEEN'S UNIVERSITY OF BELFAST, priority 2021, published 2024).

In brackets after ≈: the same amount, converted by molar mass. Positions of bridges follow the written chain, without caps; N, C: chain ends. Non-standard residues stand in square brackets, D forms with d. Residues, ends and D or L forms follow the SMILES beside them. ξ: configuration not given here. *: point of attachment. Octanoyl(7-Me) = CC(C)CCCCCC(=O)*; Hexanoyl(4ξ-Me) = CCC(C)CCC(=O)*; dOrn = NCCC[C@@H](N)C(=O)O; Orn = NCCC[C@H](N)C(=O)O

This assay relates to Escherichia coli ATCC 25922. It is filed as cell-based. The settings on record: ATCC 25922. The procedure:
Minimum inhibitory concentration (MIC) was determined by broth microdilution according to CLSI guidelines. Blood agar plates were inoculated with glycerol stocks of Escherichia coli ATCC 25922, E. coli ATCC 25922 MCR-1, E. coli MCR-1 (clinical isolate from Utrecht Medical Center, NL), E. coli EQAS MCR-2 (clinical isolate from Wageningen University and Research, NL), Kiebsielia pneumoniae ATCC 11228, K. pneumoniae ATCC 13883, K. pneumonia 2048 (clinical isolate from Vrije Universiteit Amsterdam Medical Center, NL), K. pneumonia JS-123 (clinical isolate from Utrecht Medical Center, NL), Acinetobacter baumannii ATCC 17961, A. baumannil ATCC 17978, A. baumannii 2018-006 (clinical isolate from Rijksinstituut voor Volksgezondheid en Milieu, NL), A. baumannii MDR (clinical isolate from Vrije Universiteit Amsterdam Medical Center, NL), Pseudomonas aeruginosa ATCC 27853, P. aeruginosa PAO1, P. aeruginosa NRZ-03961 (Reference strain from Das Nationale Referenzzentrum für gramnegative Krankenhauserreger, DE), P. aeruginosa M-120 (clinical isolate from Leiden University Medical Center, NL) and Staphylococcus aureus USA300 (clinical isolate from Texas Children's Hospitalm, USA). E. coli 25922 MCR1 was grown on LB agar supplemented with kanamycin. The inoculated agar plates were then incubated for 16 hours at 37° C. Individually grown colonies were subsequently used to inoculate 3 mL aliquots of TSB that were then incubated at 37° C. with shaking at 220 rpm. In parallel, the compounds to be assessed were serially diluted with Mueller-Hinton broth (MHB) in polypropylene 96-well plates (50 μL in each well). Once the OD600 of the bacterial suspensions reached 0.5, the bacteria were diluted with MHB (final concentration 2×10^5 CFU mL^−1) and added to the microplates containing the test compounds (50 μL to each well, final volume: 100 μL). The well-plates were sealed with an adhesive membrane and after 16 hours of incubation at 37° C. with shaking at 220 rpm the wells were visually inspected for bacterial growth. MIC values were defined as the lowest concentration of the compound that prevented visible growth of bacteria.

For the compound `CCC(C)CCC(=O)N[C@H](CO)C(=O)N[C@H](Cc1ccc(O)cc1)C(=O)N[C@H](Cc1c[nH]c2ccccc12)C(=O)N[C@H](CCCN)C(=O)N[C@@H](CCCN)C(=O)NCC(=O)N[C@H](CCCN)C(=O)N[C@@H](Cc1c[nH]c2ccccc12)C(=O)N[C@@H]1C(=O)N[C@@H]([C@@H](C)CC)C(=O)NCC(=O)N[C@@H](CO)C(=O)NCC(=O)O[C@@H]1C` (stereo partly drawn) [Compound R1] ({Hexanoyl(4ξ-Me)}-[dS][dY][dW][dOrn][Orn]G[dOrn]WTIGSG; ester 9-C; N-terminus assumed), the “Minimum inhibitory concentration (MIC)” value was 2 µg/mL (≈ 1.29 µM). Next, `CCC(C)CCC(=O)N[C@H](CO)C(=O)N[C@H](Cc1ccc(O)cc1)C(=O)N[C@H](Cc1c[nH]c2ccccc12)C(=O)N[C@H](CCCN)C(=O)N[C@@H](CCCN)C(=O)NCC(=O)N[C@H](CCCN)C(=O)N[C@@H](Cc1c[nH]c2ccccc12)C(=O)N[C@@H]1C(=O)N[C@@H]([C@@H](C)CC)C(=O)NCC(=O)N[C@H](CO)C(=O)NCC(=O)O[C@@H]1C` (stereo partly drawn) [Compound R2] ({Hexanoyl(4ξ-Me)}-[dS][dY][dW][dOrn][Orn]G[dOrn]WTIG[dS]G; ester 9-C; N-terminus assumed): 2 µg/mL (≈ 1.29 µM); `CC[C@H](C)[C@@H]1NC(=O)[C@@H](NC(=O)[C@H](Cc2c[nH]c3ccccc23)NC(=O)[C@@H](CCCN)NC(=O)CNC(=O)[C@H](CCCN)NC(=O)[C@@H](CCCN)NC(=O)[C@@H](Cc2c[nH]c3ccccc23)NC(=O)[C@@H](Cc2ccc(O)cc2)NC(=O)[C@@H](CO)NC(=O)CCCCCC(C)C)[C@@H](C)OC(=O)CNC(=O)[C@H](CO)NC(=O)CNC1=O` [Compound R3] ({Octanoyl(7-Me)}-[dS][dY][dW][dOrn][Orn]G[dOrn]WTIGSG; ester 9-C; N-terminus assumed): 2 to 4 µg/mL. The result for `CC[C@H](C)[C@@H]1NC(=O)[C@@H](NC(=O)[C@H](Cc2c[nH]c3ccccc23)NC(=O)[C@@H](CCCN)NC(=O)CNC(=O)[C@H](CCCN)NC(=O)[C@@H](CCCN)NC(=O)[C@@H](Cc2c[nH]c3ccccc23)NC(=O)[C@@H](Cc2ccc(O)cc2)NC(=O)[C@@H](CO)NC(=O)CCCCCC(C)C)[C@@H](C)OC(=O)CNC(=O)[C@@H](CO)NC(=O)CNC1=O` [Compound R4] ({Octanoyl(7-Me)}-[dS][dY][dW][dOrn][Orn]G[dOrn]WTIG[dS]G; ester 9-C; N-terminus assumed) reads 2 to 4 µg/mL; that for `CCC(C)CCC(=O)N[C@H](CO)C(=O)N[C@H](Cc1ccc(O)cc1)C(=O)N[C@H](Cc1c[nH]c2ccccc12)C(=O)N[C@H](CCCN)C(=O)N[C@@H](CCCN)C(=O)NCC(=O)N[C@H](CCCN)C(=O)N[C@@H](Cc1c[nH]c2ccccc12)C(=O)N[C@@H]1C(=O)N[C@@H]([C@@H](C)CC)C(=O)NCC(=O)N[C@@H](CO)C(=O)N[C@@H](C)C(=O)O[C@@H]1C` (stereo partly drawn) [Compound R5] ({Hexanoyl(4ξ-Me)}-[dS][dY][dW][dOrn][Orn]G[dOrn]WTIGSA; ester 9-C; N-terminus assumed), 2 µg/mL (≈ 1.28 µM); that for `CCC(C)CCC(=O)N[C@H](CO)C(=O)N[C@H](Cc1ccc(O)cc1)C(=O)N[C@H](Cc1c[nH]c2ccccc12)C(=O)N[C@H](CCCN)C(=O)N[C@@H](CCCN)C(=O)NCC(=O)N[C@H](CCCN)C(=O)N[C@@H](Cc1c[nH]c2ccccc12)C(=O)N[C@@H]1C(=O)N[C@@H]([C@@H](C)CC)C(=O)NCC(=O)N[C@H](CO)C(=O)N[C@@H](C)C(=O)O[C@@H]1C` (stereo partly drawn) [Compound R6] ({Hexanoyl(4ξ-Me)}-[dS][dY][dW][dOrn][Orn]G[dOrn]WTIG[dS]A; ester 9-C; N-terminus assumed), 1 µg/mL (≈ 0.639 µM).
